Series [1] deals with A. baumannii ATCC BAA 1605. The series is classed as cell-based, Acinetobacter baumannii. Particulars: ATCC BAA 1605, 18 h. As to the method:
(§1) The Acinetobacter baumannii ATCC BAA-1605, Enterococcus faecium ATCC 700221, Klebsiella aerogenes ATCC 13048, Klebsiella pneumoniae ATCC 700603, Pseudomonas aeruginosa ATCC 9027, Staphylococcus aureus ATCC 33591, Candida glabrata ATCC 15126 strains were acquired from the American Type Culture Collection (ATCC, Manassas, USA). All the strains were stored at −80 °C in Roti-Store cryo vials (Carl Roth GmbH, Germany) and before the tests were transferred into fresh Mueller–Hinton broth (MHB, Becton Dickinson, Poland) for bacteria or RPMI-1640 (Sigma-Aldrich, Germany) for fungi and incubated for 24 h at 37 °C. Then, the cultures were cultured on the Mueller–Hinton agar (BioMaxima, Poland) or Sabouraud dextrose agar (SDA, BioMaxima) plates, respectively, and incubated as just mentioned. For microbiological assays, a minimum of three to five well-isolated colonies of the same morphological type were carefully picked from the agar cultures. These colonies were transferred with sterile loop into fresh microbiological medium and incubated with shaking (100 rpm) at 37 °C until they reached logarithmic phase of growth. Cell densities for all assays were adjusted through spectrophotometric measurements (Multiskan GO Microplate Spectrophotometer, Thermo Fisher Scientific, Finland) at 600 and 530 nm for bacteria and fungi, respectively.
(§2) The MICs were determined by broth microdilution method according to the Clinical and Laboratory Standard Institute guidelines. For this purpose, initial inoculums of bacteria (5 × 10^5 CFU/mL) in MHB and yeasts (2 × 10^3 CFU/mL) in RPMI-1640 with 2% D-glucose were exposed to the ranging concentration of lipopeptides (1–512 μg/mL) and incubated at 37 °C for 18 h and 24 h, respectively. The experiments were conducted on 96-well microtiter polystyrene plates (Kartell, Italy). The growth was assessed visually after incubation and the MIC was assumed as the lowest peptide concentration at which a noticeable growth of microorganisms was inhibited. Benzalkonium chloride (Sigma-Aldrich, Germany) was used as reference compound. All experiments were conducted in triplicate.

For series [2], the system named is E. faecium ATCC 700221. The series is classed as cell-based, Enterococcus faecium. Particulars: ATCC 700221, 18 h. As for the experimental part:
as §1, §2

In series [3] the test system is C. glabrata ATCC 15126. The series is classed as cell-based, Candida glabrata. As for the experimental part: as §1, §2
In series [4] the test system is human red blood cells (RBCs). The series is classed as cell-based. Particulars: red cells of human. As to the method:
The hemolysis assay was conducted using a procedure described previously. For this purpose, human red blood cells (RBCs) isolated from K2EDTA Single Donor Human Whole blood (Innovative Research, Inc, MI, USA) were rinsed with Phosphate-buffer saline (PBS, pH 7.4±0.05, composition - KCl 2.7 mM, NaCl 140 mM, phosphate 10mM; AppliChem GmbH, Germany) by centrifugation for 10 min at 800 × g. This process was repeated 3 times and the RBCs were resuspended in PBS. Then, the stock solution of RBCs was added to the serial dilution of lipopeptides on 96-well polystyrene plates to reach a final volume of 100 μL with a 4% concentration of erythrocytes (v/v) and a concentration range of 1-512 μg/mL of tested compounds. The control wells for 0% and 100% hemolysis consisted of RBCs suspended in PBS and 1% of Triton X-100 (Sigma-Aldrich, Germany), respectively. Benzalkonium chloride (Sigma-Aldrich, Germany) was used as reference compound. Subsequently, the plates were incubated for 60 min at 37 °C and then centrifuged at 800 × g for 10 min at 4 °C (Sorvall ST […] Centrifuge, Thermo Scientific). The supernatant was carefully […] to new microtiter plates. The release of hemoglobin was monitored absorbance measurements at 540 nm (MultiskanTM GO Microplate Spectrophotometer, Thermo Scientific). All experiments were conducted in triplicate. HC50 was calculated using an ic50.tk tool.

Series [5] has as its system P. aeruginosa ATCC 9027. The series is classed as cell-based, Pseudomonas aeruginosa. Particulars: ATCC 9027, 18 h. As to the method: as §1, §2
The test system of series [6] is K. aerogenes ATCC 13048. In kind it is cell-based, Klebsiella aerogenes. Particulars: ATCC 13048, 18 h. As to the method:
as §1, §2

Series [7] relates to K. pneumoniae ATCC 700603. In kind it is cell-based, Klebsiella pneumoniae. Particulars: ATCC 700603, 18 h. As for the experimental part:
as §1, §2

Series [8] concerns human keratinocyte cell line (HaCaT). In kind it is cell-based. Particulars: 24 h. As to the method:
The immortalized human keratinocyte cell line (HaCaT), obtained from CLS (Cell Line Service, Germany) was cultured in DMEM-high glucose (Dulbecco’s Modified Eagle Medium) supplemented with 10% fetal bovine serum, 2 mM L-glutamine, 100 U/mL penicillin and 100 μg/mL streptomycin (Sigma-Aldrich; Merck KGaA) at 37 °C in a humidified atmosphere with 5% CO2. Cells were trypsinized, and the medium was renewed 2–3 times per week. The cytotoxicity of compounds was assessed by colorimetric CellTilter 96® Aqueous One Solution Cell Proliferation Assay (Promega, USA), containing a tetrazolium compound according to the manufacturer’s instructions. In brief, 7 × 10^3 HaCaT cells per well were plated on 96-well plates and incubated per night to adhere to the cultured dishes. After that time, different concentrations of the tested compounds ranging from 512 to 1 μg/mL were applied to the wells. Every compound was medium-soluble at 37 °C; thus, the non-treated cells were negative control. Serial dilutions of the tested compounds were always prepared before use. Cells were incubated with drugs for 24 h, and then, 20 μL of the CellTiter 96®AqueousOne Solution Reagent was added to each well containing treated cells in 100 µl of culture medium. After 4 h of incubation at 37 °C, the absorbance at 490 nm was recorded using a microplate reader (Epoch, BioTek Instruments, USA). The quantity of formazan product as measured by the amount of 490 nm absorbance is directly proportional to the number of living cells in culture. Benzalkonium chloride (Sigma-Aldrich, Germany) was used as reference compound. At least three independent experiments with two replicates were conducted for each concentration of a compound, and the IC50 values were calculated using GraphPad Prism 8 software.

Series [9] has as its system S. aureus ATCC 33591. The series is classed as cell-based, Staphylococcus aureus. As for the experimental part: as §1, §2

In brackets after ≈: the same amount, converted by molar mass. Read-outs that look alike come from different tables or passages of the source.

By MIC is commonly meant the smallest concentration in the dilution series that meets the test's criterion for growth inhibition. Broadly, the HC50 is the concentration giving 50% haemolysis. Read a low HC50 as stronger haemolysis. Usually IC50 stands for the point on the concentration scale where inhibition reaches its midpoint. Low readings indicate greater potency in that assay, high ones weaker potency in that assay. Turning to `CCCCCCCCCCCCCC(=O)N[C@@H](CCCCN)C(N)=O` [Peptide 1M, C14-K-NH2], the MIC in series [1] is over 512 µg/mL; in series [2], 16 µg/mL (≈ 45 µM); in series [3] (ATCC 15126, 24 h), over 512 µg/mL; in [5] it was over 512 µg/mL; in [6] it was over 512 µg/mL; in [7], over 512 µg/mL. Moreover, the minimum inhibitory concentration (MIC) in series [9] (ATCC 33591, 18 h) was 16 µg/mL (≈ 45 µM). In [4], the 50% haemolytic concentration (HC50) came out at 477.61 ± 28.02 µg/mL. For the same molecule, the concentration for half-maximal inhibition (IC50) in series [8] is reported as 4.33 ± 1.12 µg/mL (≈ 12.2 µM).

Consider `CCCCCCCCCCCCCCCC(=O)N[C@@H](CCCCN)C(N)=O` [Peptide 1P, C16-K-NH2], for which the minimum inhibitory concentration (MIC) in [2] is given as 4 µg/mL (≈ 10.4 µM); in [3] (ATCC 15126, 24 h), over 512 µg/mL; in [5] it was over 512 µg/mL; in [6], over 512 µg/mL; in series [7], over 512 µg/mL; in [9] (ATCC 33591, 18 h), over 512 µg/mL. Besides, the HC50 in [4] is reported as over 512 µg/mL. This molecule also yielded an IC50 in [8] of 1.74 ± 0.49 µg/mL (≈ 4.54 µM).

As for `CCCCCCCCCCCCCCCCCC(=O)N[C@@H](CCCCN)C(N)=O` [Peptide 1S, C18-K-NH2], the MIC in series [1] is on record as over 512 µg/mL; in series [5], over 512 µg/mL; in series [6] it was over 512 µg/mL; in series [7], over 512 µg/mL; in series [9] (S. aureus ATCC 33591, 18 h, 37 °C) it was over 512 µg/mL. Also, the HC50 in series [4] is over 512 µg/mL. Moreover, the IC50 in series [8] is on record as 8.34 ± 1.07 µg/mL (≈ 20.3 µM).

On to `CCCCCCCCCCCCCCCCCC(=O)N[C@@H](CCCC[N+](C)(C)C)C(N)=O` [Peptide 1Sq, C18-K(Me3)^+-NH2], for which the MIC was over 512 µg/mL in [1]; 4 to 8 µg/mL in series [3] (ATCC 15126, 24 h); 4 µg/mL in series [3] (C. glabrata ATCC 15126, 24 h, 37 °C); over 512 µg/mL in series [5]; over 512 µg/mL in series [6]; over 512 µg/mL in [7]. This molecule gave a concentration for 50% haemolysis (HC50) in series [4] of 16.13 ± 9.88 µg/mL. This molecule also gave an IC50 in [8] of 14.13 ± 0.39 µg/mL.

Consider `CCCCCCCCCCCCCCCC(=O)N[C@@H](CCCCN)C(=O)N[C@@H](CCCCN)C(N)=O` [Peptide 2P, C16-KK-NH2], for which the MIC in series [1] is recorded as 64 µg/mL (≈ 125 µM); in [2], 8 µg/mL (≈ 15.6 µM); in series [3] (ATCC 15126, 24 h), 16 µg/mL (≈ 31.3 µM); in series [5], 16 µg/mL (≈ 31.3 µM); in [6] it was 32 µg/mL (≈ 62.5 µM); in series [7] it was 128 µg/mL (≈ 250 µM). In addition, in [4], the HC50 turned out to be 55.21 ± 1.69 µg/mL. In series [8], this molecule returned a 50% inhibitory concentration (IC50) of 10.27 ± 1.59 µg/mL (≈ 20.1 µM).

For the origin of these results see paper PMC10687119, “Quaternary Ammonium Salts of Cationic Lipopeptides with Lysine Residues — Synthesis, Antimicrobial, Hemolytic and Cytotoxic Activities” (Probiotics and Antimicrobial Proteins, 2023).
